# From article PMC2813863, “In Vivo Evaluation of α7 Nicotinic Acetylcholine Receptor Agonists [^11C]A-582941 and [^11C]A-844606 in Mice and Conscious Monkeys” (PLoS ONE, 2010)
# Columns and labels:
# α7 nAChRs [1] = molecular target: α7 nAChRs (Mus musculus, UniProt P49582); details: in vivo
# Experimental: In the other group of mice, a blocking experiment to determine the α7 nAChRs-specific regional brain uptake of the tracers was carried out. Each tracer (2 MBq/0.055–0.096 nmol) was co-injected with each of the following blockers into mice, and 15 ([^11C]A-582941) or 30 ([^11C]A-844606) min later the mice were killed (n = 5) and the tissue uptake of ^11C was expressed as the %ID/g. […] Each blocker was dissolved in 1N HCl to 40 mg/ml and diluted up to 0.4 mg/ml with saline. The co-injected dose was 1 mg/kg. In the control mice the same amount of 0.01 N HCl in saline was co-injected.
# α7 nAChRs [2] = molecular target: α7 nAChRs (Macaca mulatta, UniProt Q866A2); details: rhesus monkey, in vivo
# Sequence of α7 nAChRs (Macaca mulatta, UniProt Q866A2) (Q866A2 23-502): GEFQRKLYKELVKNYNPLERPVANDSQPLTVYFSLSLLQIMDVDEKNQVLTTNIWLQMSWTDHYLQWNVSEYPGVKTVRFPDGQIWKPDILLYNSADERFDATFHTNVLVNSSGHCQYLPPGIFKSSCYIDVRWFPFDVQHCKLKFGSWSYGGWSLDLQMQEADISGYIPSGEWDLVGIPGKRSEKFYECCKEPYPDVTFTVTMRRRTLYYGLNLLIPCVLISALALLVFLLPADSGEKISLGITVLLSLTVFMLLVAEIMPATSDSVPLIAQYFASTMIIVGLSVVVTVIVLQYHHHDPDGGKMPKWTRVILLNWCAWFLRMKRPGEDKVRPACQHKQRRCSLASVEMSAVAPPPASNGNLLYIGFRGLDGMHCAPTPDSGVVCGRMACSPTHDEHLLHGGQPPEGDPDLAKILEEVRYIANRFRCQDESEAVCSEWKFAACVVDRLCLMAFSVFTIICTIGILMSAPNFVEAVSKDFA
# Excerpt: Four young-adult male rhesus monkeys (Macaca mulatta) weighing from 4 to 6 kg were used for PET measurements. The monkeys were trained for the protocol as described previously. The magnetic resonance images (MRI) of all monkeys were obtained with a Toshiba MRT-50A/II (0.5T) under anesthesia with pentobarbital. The stereotactic coordinates of PET and MRI were adjusted based on the orbitomeatal (OM) line with monkeys secured in a specially designed head holder. At least 1 month before the PET study, an acrylic plate, with which the monkey was fixed to the monkey chair, was attached to the head under pentobarbital anesthesia as described previously.
# PET data were collected on a high-resolution PET scanner (SHR-7700; Hamamatsu Photonics K.K., Hamamatsu, Japan). The camera consists of 16 detector rings and acquires 20 slices at a center-to-center interval of 3.6 mm with a transaxial resolution of 2.6 mm full width at half maximum. After an overnight fast, the monkey was fixed to the monkey chair with stereotactic coordinates aligned parallel to the OM line. A cannula was implanted in the posterior tibial vein, and [^11C]A-582941 or [^11C]A-844606 (1152–1336 MBq/26.8–63.1 nmol) was injected into the monkey through the venous cannula. PET images were acquired over 91 min (10 sec ×6 frames, 30 sec ×6 frames, 1 min ×12 frames, and 3 min ×25 frames). PET scans were reconstructed using a filtered backprojection method in a 100×100 matrix, with a voxel size of 1.2 mm ×1.2 mm ×3.6 mm. Summed image of late phase (from 70 to 91 min post-injection) was calculated as a static SUV (activity/ml tissue)/(injected activity/g body weight) image. Each MRI was coregistered to an early (from 0 to 20 min) summed image using normalized mutual information, and ROIs were placed on the summed image with reference to the coregistered MRI. Three monkeys underwent [^11C]A-582941 scan morning, and then two of the three monkeys underwent [^11C]A-844606 afternoon (baseline). Within 6 months the last one of the three monkeys underwent two [^11C]A-844606 scans in the baseline (morning) and blocking (afternoon) conditions 30 min after injection of SSR180711 (5.0 mg/kg, i.v.), and the fourth monkey underwent two [^11C]A-582941 scans in the baseline and blocking conditions in the same way.
# For the semi-quantitative analysis of PET data, arterial samples were obtained every 8 sec from injection to 64 sec, and then again at 1.5, 2.5, 4, 6, 10, 20, 30, 45, 60, and 90 min after each tracer injection. Blood samples were centrifuged to separate the plasma, weighed, and subjected to radioactivity measurement. For metabolite analysis, methanol was added to some plasma samples, the resulting solutions were centrifuged, and the supernatants were developed with TLC plates (AL SIL G/UV; Whatman, Kent, UK) using a mobile phase of dichloromethane/diethyl ether/ethanol/triethylamine (20/20/2/2, v/v/v/v). At each sampling time point, the ratio of radioactivity in the unmetabolized fraction to that in the total plasma (metabolite plus unmetabolite) was determined using a phosphoimaging plate (BAS-1500 MAC; Fuji Film Co., Tokyo, Japan). The pTACs corrected for metabolite were obtained. The tTACs in each region of interest (ROI) in the brain were calculated as the %ID/ml or as a standardized uptake value (SUV), (activity/ml tissue)/(injected activity/g body weight). Using the tTACs and the metabolite-corrected pTAC, the V T for each tracer was evaluated by Logan graphical analysis.
# Sequence of α7 nAChRs (Mus musculus, UniProt P49582) (P49582 23-502): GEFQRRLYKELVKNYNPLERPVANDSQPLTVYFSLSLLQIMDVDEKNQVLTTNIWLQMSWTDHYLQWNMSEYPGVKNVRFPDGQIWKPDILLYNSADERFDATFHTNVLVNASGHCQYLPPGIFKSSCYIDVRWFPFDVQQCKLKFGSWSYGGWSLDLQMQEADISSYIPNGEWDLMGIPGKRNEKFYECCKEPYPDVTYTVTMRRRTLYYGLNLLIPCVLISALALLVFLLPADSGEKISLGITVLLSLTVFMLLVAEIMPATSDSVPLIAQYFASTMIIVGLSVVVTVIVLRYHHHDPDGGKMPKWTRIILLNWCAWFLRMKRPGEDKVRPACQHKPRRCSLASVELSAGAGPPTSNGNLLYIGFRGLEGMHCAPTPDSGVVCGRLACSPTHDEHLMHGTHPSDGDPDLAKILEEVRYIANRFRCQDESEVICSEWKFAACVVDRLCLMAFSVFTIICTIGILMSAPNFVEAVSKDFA
structure (smiles),measurement,setting,value
"[11CH3]N1CC2CN(c3ccc(-c4ccccc4)nn3)CC2C1 (stereo not shown) [[^11C]A-582941, 2-[^11C]Methyl-5-[6-phenylpyridazine-3-yl]octahydropyrrolo[3,4-c]pyrrole]","% Injected dose/g tissue, Blood",α7 nAChRs [1],0.88±0.10 % Injected dose/g tissue
same,"% Injected dose/g tissue, Cerebellum",α7 nAChRs [1],3.71±0.19 % Injected dose/g tissue
same,"% Injected dose/g tissue, Cerebral cortex",α7 nAChRs [1],4.59±0.25 % Injected dose/g tissue
same,"% Injected dose/g tissue, Hippocampus",α7 nAChRs [1],4.05±0.52 % Injected dose/g tissue
same,"% Injected dose/g tissue, Hypothalamus",α7 nAChRs [1],3.51±0.60 % Injected dose/g tissue
same,"% Injected dose/g tissue, Medulla oblongata",α7 nAChRs [1],4.23±0.08 % Injected dose/g tissue
same,"% Injected dose/g tissue, Midbrain",α7 nAChRs [1],4.09±0.52 % Injected dose/g tissue
same,"% Injected dose/g tissue, Striatum",α7 nAChRs [1],4.03±0.45 % Injected dose/g tissue
same,"% Injected dose/g tissue, Whole brain",α7 nAChRs [1],4.23±0.23 % Injected dose/g tissue
same,"V T Baseline, Cerebellum",α7 nAChRs [2]; male,25.4 mL/g
same,"V T Baseline, Frontal cortex",α7 nAChRs [2]; male,34.5 mL/g
same,"V T Baseline, Hippocampus",α7 nAChRs [2]; male,31.6 mL/g
same,"V T Baseline, Thalamus",α7 nAChRs [2]; male,34.0 mL/g
same,"V T SSR180711, Cerebellum",α7 nAChRs [2]; male,17.3 mL/g
same,"V T SSR180711, Frontal cortex",α7 nAChRs [2]; male,23.0 mL/g
same,"V T SSR180711, Hippocampus",α7 nAChRs [2]; male,20.4 mL/g
same,"V T SSR180711, Thalamus",α7 nAChRs [2]; male,23.6 mL/g
same,"V T, cerebellum (mean ± SD)",α7 nAChRs [2]; male,23.0±3.4
same,"V T, cerebellum (range)",α7 nAChRs [2]; male,18.0–25.4
same,"V T, frontal cortex (mean ± SD)",α7 nAChRs [2]; male,29.2±4.7
same,"V T, frontal cortex (range)",α7 nAChRs [2]; male,23.2–34.5
same,"V T, hippocampus (mean ± SD)",α7 nAChRs [2]; male,28.0±3.8
same,"V T, hippocampus (range)",α7 nAChRs [2]; male,22.8–31.6
same,"V T, thalamus (mean ± SD)",α7 nAChRs [2]; male,30.4±4.1
same,"V T, thalamus (range)",α7 nAChRs [2]; male,24.6–34.0
same,"time of peak radioactivity in the four brain regions (thalamus, frontal cortex, hippocampus, cerebellum)",α7 nAChRs [2]; male,10 min
same,"% decrease of V T, Cerebellum",α7 nAChRs [2],32.0%
same,"% decrease of V T, Frontal cortex",α7 nAChRs [2],33.4%
same,"% decrease of V T, Hippocampus",α7 nAChRs [2],35.5%
same,"% decrease of V T, Thalamus",α7 nAChRs [2],30.5%
same,decrease of V T by pretreatment with SSR180711,α7 nAChRs [2],~30%
